This note sets out measurements from patent US6867192B1, “Compounds useful in the treatment of inflammatory diseases” (priority 1998, dated 2005).

The experiment deals with T1, integrin α4β7, expressed on the RPMI 8866 (human B lymphoid cell line) cell membrane with MAdCAM-1 (Homo sapiens, UniProt P13612+P26010).
T1 construct: integrin α4β7, expressed on the RPMI 8866 (human B lymphoid cell line) cell membrane; endogenous in cells; host or cells: RPMI 8866 cells (integrin). zzMAdCAM-1 was made in house in baculovirus-infected Spodoptera frugiperda cells
T1 sequence (P13612 34-1032): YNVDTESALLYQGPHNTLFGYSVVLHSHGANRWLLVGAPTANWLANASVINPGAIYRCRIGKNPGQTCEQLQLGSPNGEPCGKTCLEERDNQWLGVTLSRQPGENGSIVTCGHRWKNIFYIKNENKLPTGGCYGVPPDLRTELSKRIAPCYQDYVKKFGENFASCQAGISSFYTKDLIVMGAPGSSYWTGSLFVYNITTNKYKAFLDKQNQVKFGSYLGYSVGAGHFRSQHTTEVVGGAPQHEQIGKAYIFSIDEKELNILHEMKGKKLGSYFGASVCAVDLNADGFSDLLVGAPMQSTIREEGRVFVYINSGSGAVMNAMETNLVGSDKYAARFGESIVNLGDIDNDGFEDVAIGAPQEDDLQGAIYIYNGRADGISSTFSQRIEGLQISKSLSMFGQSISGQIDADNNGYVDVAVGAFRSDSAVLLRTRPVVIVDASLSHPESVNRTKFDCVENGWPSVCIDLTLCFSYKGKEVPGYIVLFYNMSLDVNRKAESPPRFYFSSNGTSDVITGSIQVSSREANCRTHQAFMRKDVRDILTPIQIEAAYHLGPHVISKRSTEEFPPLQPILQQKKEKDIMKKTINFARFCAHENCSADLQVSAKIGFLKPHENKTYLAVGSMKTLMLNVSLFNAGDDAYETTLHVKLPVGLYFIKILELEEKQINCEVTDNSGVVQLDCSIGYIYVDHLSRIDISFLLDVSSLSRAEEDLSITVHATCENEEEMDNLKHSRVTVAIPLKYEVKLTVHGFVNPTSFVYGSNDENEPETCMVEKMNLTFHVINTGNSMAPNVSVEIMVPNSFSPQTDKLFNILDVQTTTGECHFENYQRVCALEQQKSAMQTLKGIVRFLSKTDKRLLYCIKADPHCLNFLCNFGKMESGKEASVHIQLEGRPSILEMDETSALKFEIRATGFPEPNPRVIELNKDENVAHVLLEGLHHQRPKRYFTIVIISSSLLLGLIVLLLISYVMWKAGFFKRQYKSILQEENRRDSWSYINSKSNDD
T1 sequence (P26010 20-798): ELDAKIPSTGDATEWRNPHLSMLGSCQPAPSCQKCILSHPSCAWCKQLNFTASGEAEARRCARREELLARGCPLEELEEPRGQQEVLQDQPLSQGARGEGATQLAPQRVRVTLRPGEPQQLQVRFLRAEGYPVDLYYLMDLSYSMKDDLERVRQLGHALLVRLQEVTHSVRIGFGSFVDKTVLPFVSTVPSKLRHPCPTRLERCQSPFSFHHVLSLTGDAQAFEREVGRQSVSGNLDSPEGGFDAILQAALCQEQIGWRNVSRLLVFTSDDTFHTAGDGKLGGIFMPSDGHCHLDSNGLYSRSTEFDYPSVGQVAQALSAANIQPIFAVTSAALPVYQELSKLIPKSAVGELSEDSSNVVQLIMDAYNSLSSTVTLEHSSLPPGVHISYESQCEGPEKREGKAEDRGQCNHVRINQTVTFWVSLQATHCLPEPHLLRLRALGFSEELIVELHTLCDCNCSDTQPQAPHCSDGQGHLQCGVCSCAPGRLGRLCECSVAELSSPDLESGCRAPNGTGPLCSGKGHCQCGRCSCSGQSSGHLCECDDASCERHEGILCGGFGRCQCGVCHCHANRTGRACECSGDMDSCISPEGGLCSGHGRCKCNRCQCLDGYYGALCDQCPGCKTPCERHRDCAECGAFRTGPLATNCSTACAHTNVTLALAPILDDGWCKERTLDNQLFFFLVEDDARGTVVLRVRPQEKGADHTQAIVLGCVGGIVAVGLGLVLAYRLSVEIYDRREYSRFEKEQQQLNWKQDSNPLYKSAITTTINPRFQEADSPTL
In words: RPMI 8866/MAdCAM-1 adhesion assay. In kind it is cell-based. As to conditions: RPMI 8866 cell adhesion to MAdCAM-1, 1 mM MnCl2; mean of n experiments. The protocol:
(4) RPMI 8866/MAdCAM-1 Adhesion Assay
This assay was used to investigate the interaction of the integrin α4β7, expressed on the RPMI 8866 (human B lymphoid cell line) cell membrane with MAdCAM-1. Polystyrene 96-well microtitre plates were coated with human immunoglobulin G (IgG; Sigma Chemicals, UK, Product No. 14506) at a concentration of 0.05 mg ml^−1 in bicarbonate buffer (36 mM NaHCO3 and 22 mM Na2CO3, prepared in Dulbecco's phosphate buffered saline at pH 9.8 (PBS); Sigma Chemicals, UK, Product No. 14190-094) for 2 hours at 37° C. This solution was then aspirated and the plates were washed twice with PBS.
MAdCAM-1 was prepared by cloning its constituent domains, under the control of a polyhedrin promoter, into a baculovirus expression system with a zz (Protein A) tag. The amplified baculovirus containing zzMAdCAM-1 was used to infect Spodoptera frugiperda cells growing in suspension in SF900II medium supplemented with 5% foetal calf serum. The cells were infected at a multiplicity of infection of 1 and harvested 48 hours later by centrifugation. Protease inhibitors were added and the culture supernatant was clarified either by filtration through a 0.2 μm filter or by centrifugation. The zzMAdCAM-1 was then purified from this clarified medium using an IgG agarose column, equilibrated with either 20 mM sodium phosphate pH 7.2 alone or in the presence of 0.5M sodium chloride. Elution of zzMAdCAM-1 from the column was mediated using 3M ammonium thiocyanate. The sample was then dialysed thoroughly, using 20 mM sodium phosphate pH 7.2, to remove the ammonium thiocyanate. The purified zzMAdCAM-1 was then concentrated to a small volume (Amicon stirred cell concentrators) until a concentration of 0.5 mg ml^−1 was obtained, calculated using the extinction coefficient value.
This solution of zzMAdCAM-1 was diluted 1:2500 and then incubated overnight at 4° C. in the IgG coated microtitre plates with 3% bovine serum albumin (BSA) in PBS, followed by aspiration and two further washes with PBS. A concentration of the RPMI 8866 cells (3×10^6 cells ml^−1), grown in cell media RPMI 1640 (HyClone Ltd, Product No. B-9106-L) supplemented with 10% heat inactivated foetal calf serum (FCS; Gibco BRL, Product No. 10099-075) and 2 mM L-glutamine, were labelled with 10 μM of the fluorescent dye, 2′, 7′-bis(2-carboxyethyl)-5-(e6)-carboxyfluorescein acetoxymethyl ester (BCECF-AM; Molecular Probes Inc. Product No. B-1150) at 37° C. for 10 minutes. The excess dye was then removed by centrifugation at 500×g for 5 minutes and the cells were resuspended at a concentration of 6×10^6 cells ml^−1 in Hank's balanced salt solution (HBSS; Gibco BRL, Product No. 1419D-094).
Equal volumes of compounds (dissolved in an appropriate solvent and diluted in HBSS containing 1 mM MnCl2) and the labelled RPMI 8866 cells, were added to the MAdCAM-1 coated plates and adhesion was allowed to proceed for 30 minutes at 37° C. Non, or loosely adhered cells, were removed by inversion of the plate and blotted with tissue paper. Two washes with PBS and further blotting were then performed, before the addition of 2% detergent (Triton-X®; Sigma Chemicals UK, Product No. X100). Counting was undertaken in a Wallac Victor™ Fluorimeter, where low fluorescence values were indicative of compounds which had inhibited adhesion. All samples were assayed in singlicate and the following four parameter curve fit, shown by Equation (I) (above) was applied. Wherein the maximum and minimum values are those compared to adhesion in the absence of compound and in the presence of the dipotassium salt of 2 mM EDTA; Sigma Chemicals, UK, Product No. ED2P). Data is presented as the mean pIC50 with the standard error of the mean of n experiments.

For the compound `CC(=O)N1CCN(C(=O)Oc2ccc(C[C@H](NC(=O)[C@H](CC(C)C)NC(=O)COc3ccccc3C(C)(C)C)C(=O)O)cc2)CC1` [Example 16, (2S)-3-(4-{[(4-Acetyl-1-piperazinyl)carbonyl]oxy}phenyl)-2-{[(2S)-2-({2-[2-(tert-butyl)phenoxy]acetyl}amino)-4-methylpentanoyl]amino}propanoic acid], the half-maximal inhibitory concentration (IC50) (as a rule, the point on the concentration scale where inhibition reaches its midpoint) was 158 nM.
Turning to `CC(=O)N1CCN(C(=O)Oc2ccc(C[C@H](NC(=O)[C@H](CC(C)C)NC(=O)COc3ccccc3C)C(=O)O)cc2)CC1` [Example 17, (2S)-3-(4-{[(4-Acetyl-1-piperazinyl)carbonyl]oxy}phenyl)-2-[((2S)-4-methyl-2-{[2-(2-methylphenoxy)acetyl]amino}pentanoyl)amino]propanoic acid], the midpoint of inhibition, the IC50, lay at 158 nM. That is a sub-micromolar value.
`CC(C)C[C@H](NC(=O)COc1ccccc1C(C)(C)C)C(=O)N[C@@H](Cc1ccc(OC(=O)N2CCN(C(=O)c3ccccc3)CC2)cc1)C(=O)O` [Example 20, (2S)-3-(4-{[(4-Benzoyl-1-piperazinyl)carbonyl]oxy}phenyl)-2-{[(2S)-2-({2-[2-(tert-butyl)phenoxy]acetyl}amino)-4-methylpentanoyl]amino}propanoic acid]: the half-inhibitory concentration (IC50) is 200 nM.
For `Cc1ccccc1OCC(=O)N[C@@H](CC(C)C)C(=O)N[C@@H](Cc1ccc(OC(=O)N2CCN(C(=O)c3ccccc3)CC2)cc1)C(=O)O` [Example 21, (2S)-3-(4-{[(4-Benzoyl-1-piperazinyl)carbonyl]oxy}phenyl)-2-[((2S)-4-methyl-2-{[2-(2-methylphenoxy)acetyl]amino}pentanoyl)amino]propanoic acid] the value was 200 nM; for `CC(C)C[C@H](NC(=O)COc1ccccc1I)C(=O)N[C@@H](Cc1ccc(OC(=O)N2CCOCC2)cc1)C(=O)O` [Example 23, (2S)-2-[((2S)-2-{[2-(2-Iodophenoxy)acetyl]amino}-4-methylpentanoyl)amino]-3-{4-[(4-morpholinylcarbonyl)oxy]phenyl}propanoic acid], 63.1 nM; for `CC(C)C[C@H](NC(=O)COc1ccccc1C(C)(C)C)C(=O)N[C@@H](Cc1ccc(OC(=O)N2CCOCC2)cc1)C(=O)O` [Example 24, (2S)-2-{[(2S)-2-({2-[2-(Tert-butyl)phenoxy]acetyl}amino)-4-methylpentanoyl]amino}-3-{4-[(4-morpholinylcarbonyl)oxy]phenyl}propanoic acid], 251 nM.
For `Cc1ccccc1OCC(=O)N[C@@H](CC(C)C)C(=O)N[C@@H](Cc1ccc(OC(=O)N2CCC(C(N)=O)CC2)cc1)C(=O)O` [Example 27, (2S)-3-[4-({[4-(Aminocarbonyl)-1-piperidinyl]carbonyl}oxy)phenyl]-2-[((2S)-4-methyl-2-{[2-(2-methylphenoxy)acetyl]amino}pentanoyl)amino]propanoic acid] the value was 31.6 nM; for `CC(C)C[C@H](NC(=O)c1cccc2c1oc1ccccc12)C(=O)N[C@@H](Cc1ccc(OC(=O)N2CCC(C(N)=O)CC2)cc1)C(=O)O` [Example 28, (2S)-3-[4-({[4-(Aminocarbonyl)-1-piperidinyl]carbonyl}oxy)phenyl]-2-({(2S)-2-[(dibenzo[b,d]furan-4-ylcarbonyl)amino]-4-methylpentanoyl}amino)propanoic acid], 126 nM.
